Experimental data as given in PMC2014795 (PLoS Pathogens, 2007).
Where no end group is shown, it is not given here.

Target: T1, HLA-DR1 (DRB1*0101) (Homo sapiens, UniProt P01903+P01911, A100R/D57E/F55L/F60I/F76Y/I96L/L162R/M171V/P40L/Q125E/R42F/V115G/Y59C)
T1 construct: the extracellular portion of HLA-DR1 was produced by expression of isolated subunits in Escherichia coli inclusion bodies; made in house
Assay: biochemical
Format: binding
Details: not given

First: CC[C@H](C)[C@H](N)C(=O)N[C@@H](CC(=O)O)C(=O)N[C@@H](CC(N)=O)C(=O)NCC(=O)N[C@@H](CO)C(=O)N[C@@H](CC(N)=O)C(=O)N[C@@H](CCSC)C(=O)N[C@@H](CC(C)C)C(=O)N[C@H](C(=O)N[C@@H](CC(C)C)C(=O)N[C@@H](CC(N)=O)C(=O)N1CCC[C@H]1C(=O)N[C@H](C(=O)N[C@@H](CCC(N)=O)C(=O)N[C@@H](CO)C(=O)N[C@@H](CC(=O)O)C(=O)N[C@@H](CO)C(=O)NCC(=O)N[C@H](C(=O)N[C@@H](Cc1ccc(O)cc1)C(=O)N[C@H](C(=O)O)[C@@H](C)CC)[C@@H](C)CC)[C@@H](C)O)[C@@H](C)CC [Peptide 338]
Second: CC[C@H](C)[C@H](NC(=O)[C@H](Cc1ccccc1)NC(=O)[C@H](CC(C)C)NC(=O)[C@H](CC(C)C)NC(=O)[C@H](CS)NC(=O)[C@@H](NC(=O)[C@H](C)NC(=O)[C@H](C)NC(=O)[C@@H](NC(=O)[C@H](C)NC(=O)[C@@H](NC(=O)[C@@H](NC(=O)[C@@H](NC(=O)[C@H](Cc1ccccc1)NC(=O)[C@H](Cc1ccccc1)NC(=O)[C@@H](NC(=O)[C@H](CO)NC(=O)[C@H](CC(C)C)NC(=O)[C@H](CO)NC(=O)[C@H](CC(N)=O)NC(=O)[C@@H](N)CCSC)[C@@H](C)CC)[C@@H](C)CC)C(C)C)C(C)C)[C@@H](C)O)C(C)C)C(=O)O [Peptide 325]
The IC50 of the first is 1.7-fold higher: 0.98 ± 0.17 µM for the first, 0.58 ± 0.05 µM for the second.

First: CC[C@H](C)[C@H](NC(=O)[C@H](CO)NC(=O)[C@H](C)NC(=O)[C@H](CC(=O)O)NC(=O)[C@H](CC(C)C)NC(=O)[C@H](CC(C)C)NC(=O)[C@H](CO)NC(=O)[C@H](C)NC(=O)[C@@H](NC(=O)[C@H](CO)NC(=O)[C@@H](NC(=O)[C@@H](NC(=O)[C@@H](NC(=O)[C@@H](NC(=O)[C@@H](NC(=O)[C@H](CCCCN)NC(=O)[C@@H](N)CCSC)C(C)C)C(C)C)[C@@H](C)CC)C(C)C)[C@@H](C)O)C(C)C)C(=O)N[C@@H](CCC(N)=O)C(=O)N[C@@H](Cc1ccccc1)C(=O)N[C@@H](CCC(N)=O)C(=O)N[C@@H](CCCCN)C(=O)O [Peptide 332]
Second: CC[C@H](C)[C@H](N)C(=O)N[C@@H](CO)C(=O)N[C@@H](CCC(=O)O)C(=O)N1CCC[C@H]1C(=O)N[C@H](C(=O)N[C@@H](CC(N)=O)C(=O)N[C@H](C(=O)N[C@@H](Cc1ccc(O)cc1)C(=O)N[C@@H](CC(C)C)C(=O)N[C@@H](CC(C)C)C(=O)N[C@@H](C)C(=O)N[C@@H](C)C(=O)N[C@H](C(=O)N[C@@H](Cc1ccc(O)cc1)C(=O)N[C@@H](CO)C(=O)N[C@@H](CC(=O)O)C(=O)N[C@@H](Cc1ccccc1)C(=O)N[C@@H](CC(N)=O)C(=O)N[C@@H](CC(=O)O)C(=O)N[C@@H](CCC(=O)O)C(=O)N[C@H](C(=O)O)C(C)C)C(C)C)C(C)C)C(C)C [Peptide 341]
The IC50 of the first is 12-fold higher: 0.38 ± 0.028 µM for the first, 0.032 ± 0.002 µM for the second. The second is the more potent here.

Going from `CC[C@H](C)[C@H](NC(=O)[C@@H](NC(=O)[C@H](CC(C)C)NC(=O)[C@H](C)NC(=O)[C@@H](NC(=O)[C@H](CC(C)C)NC(=O)[C@H](C)NC(=O)[C@H](CC(C)C)NC(=O)[C@H](CC(C)C)NC(=O)[C@H](CCSC)NC(=O)[C@H](CCC(N)=O)NC(=O)[C@H](Cc1ccc(O)cc1)NC(=O)[C@H](CC(N)=O)NC(=O)[C@H](CCCNC(=N)N)NC(=O)[C@H](CO)NC(=O)[C@@H](NC(=O)[C@H](CC(C)C)NC(=O)[C@@H](N)CCCNC(=N)N)C(C)C)C(C)C)C(C)C)C(=O)N[C@H](C(=O)N[C@@H](CC(C)C)C(=O)N[C@H](C(=O)O)[C@@H](C)O)[C@@H](C)O` [Peptide 310] to `CC[C@H](C)[C@H](NC(=O)[C@@H]1CCCN1C(=O)[C@H](CO)NC(=O)CNC(=O)[C@H](CO)NC(=O)[C@H](CC(C)C)NC(=O)[C@H](CC(C)C)NC(=O)[C@H](CC(C)C)NC(=O)[C@H](Cc1ccccc1)NC(=O)[C@@H]1CCCN1C(=O)[C@@H](NC(=O)[C@H](CCCCN)NC(=O)[C@H](CC(N)=O)NC(=O)[C@H](CCCCN)NC(=O)[C@@H](N)CC(N)=O)[C@@H](C)CC)C(=O)N[C@H](C(=O)N[C@@H](CC(N)=O)C(=O)N[C@H](C(=O)N1CCC[C@H]1C(=O)N[C@@H](CC(N)=O)C(=O)N[C@H](C(=O)O)[C@@H](C)O)[C@@H](C)O)[C@@H](C)O` [Peptide 316], the IC50 falls from 0.66 ± 0.025 µM to 0.045 ± 0.019 µM (15-fold).

First: CC[C@H](C)[C@H](N)C(=O)N[C@@H](Cc1ccccc1)C(=O)N[C@@H](CCCCN)C(=O)N[C@@H](CC(N)=O)C(=O)N[C@@H](CC(N)=O)C(=O)N[C@@H](CC(=O)O)C(=O)N[C@H](C(=O)N[C@@H](CCCNC(=N)N)C(=O)N[C@H](C(=O)N[C@@H](CC(C)C)C(=O)N[C@@H](CC(C)C)C(=O)NCC(=O)N[C@@H](CC(C)C)C(=O)N[C@H](C(=O)N[C@@H](CC(C)C)C(=O)N[C@@H](Cc1ccccc1)C(=O)N[C@H](C(=O)N[C@@H](CC(C)C)C(=O)N[C@@H](C)C(=O)N[C@@H](CC(C)C)C(=O)N[C@@H](Cc1ccc(O)cc1)C(=O)O)C(C)C)[C@@H](C)CC)[C@@H](C)O)C(C)C [Peptide 322]
Second: CC[C@H](C)[C@H](NC(=O)[C@@H](NC(=O)[C@@H]1CCCN1C(=O)[C@H](CCC(=O)O)NC(=O)[C@H](CO)NC(=O)[C@H](CO)NC(=O)[C@H](CCSC)NC(=O)[C@H](Cc1ccc(O)cc1)NC(=O)[C@H](CCCNC(=N)N)NC(=O)[C@H](Cc1ccccc1)NC(=O)[C@@H](NC(=O)[C@@H](NC(=O)[C@H](CC(N)=O)NC(=O)[C@H](C)NC(=O)[C@@H](NC(=O)[C@@H](N)CCC(N)=O)[C@@H](C)O)C(C)C)C(C)C)[C@@H](C)CC)C(=O)N[C@@H](Cc1ccccc1)C(=O)NCC(=O)N[C@@H](CCC(=O)O)C(=O)N[C@@H](CO)C(=O)N[C@@H](CO)C(=O)O [Peptide 302]
The IC50 of the first is 34-fold higher: 1.27 µM for the first, 0.037 ± 0.01 µM for the second.

Going from `CC[C@H](C)[C@H](NC(=O)CNC(=O)[C@@H](NC(=O)[C@@H]1CCCN1C(=O)[C@@H](NC(=O)CNC(=O)CNC(=O)CNC(=O)[C@@H](N)CC(C)C)[C@@H](C)O)[C@@H](C)CC)C(=O)N[C@H](C(=O)N[C@@H](CO)C(=O)N[C@@H](C)C(=O)N[C@@H](CCC(N)=O)C(=O)N[C@H](C(=O)N[C@@H](CC(C)C)C(=O)N[C@@H](CO)C(=O)N[C@@H](CCC(=O)O)C(=O)N[C@@H](CCCCN)C(=O)N[C@@H](Cc1ccccc1)C(=O)N[C@H](C(=O)N[C@@H](CCC(N)=O)C(=O)O)[C@@H](C)O)C(C)C)[C@@H](C)CC` [Peptide 326] to `CC[C@H](C)[C@H](NC(=O)[C@H](CCC(=O)O)NC(=O)[C@H](CC(=O)O)NC(=O)[C@@H](NC(=O)[C@H](CC(=O)O)NC(=O)[C@H](CC(C)C)NC(=O)[C@@H](NC(=O)[C@H](CCCCN)NC(=O)CNC(=O)[C@H](Cc1c[nH]cn1)NC(=O)[C@@H](NC(=O)[C@@H](NC(=O)[C@H](Cc1ccc(O)cc1)NC(=O)[C@H](CCSC)NC(=O)[C@H](CC(=O)O)NC(=O)[C@H](Cc1ccc(O)cc1)NC(=O)[C@@H]1CCCN1C(=O)[C@H](CC(C)C)NC(=O)[C@H](CCCNC(=N)N)NC(=O)[C@@H](N)CCCCN)[C@@H](C)CC)[C@@H](C)CC)C(C)C)[C@@H](C)CC)C(=O)N[C@@H](CC(C)C)C(=O)O` [Peptide 339], the IC50 rises from 0.029 ± 0.008 µM to 0.21 ± 0.045 µM (7.2-fold). The first is the more potent here.

Compared with `CC[C@H](C)[C@H](NC(=O)[C@H](CCCNC(=N)N)NC(=O)[C@H](CC(=O)O)NC(=O)[C@@H](NC(=O)[C@H](CCCCN)NC(=O)[C@@H](NC(=O)[C@H](CO)NC(=O)[C@H](CCC(=O)O)NC(=O)[C@@H](NC(=O)[C@H](Cc1ccc(O)cc1)NC(=O)[C@H](CCSC)NC(=O)[C@H](Cc1ccccc1)NC(=O)[C@H](CO)NC(=O)[C@H](Cc1ccccc1)NC(=O)[C@H](CCCCN)NC(=O)[C@H](Cc1ccccc1)NC(=O)[C@H](Cc1ccccc1)NC(=O)[C@@H](N)CC(=O)O)[C@@H](C)CC)[C@@H](C)CC)C(C)C)C(=O)NCC(=O)N[C@@H](CC(=O)O)C(=O)N[C@@H](CC(N)=O)C(=O)O` [Peptide 328], `CC[C@H](C)[C@H](NC(=O)[C@H](CCCNC(=N)N)NC(=O)[C@H](CO)NC(=O)CNC(=O)[C@H](CCC(N)=O)NC(=O)[C@H](CCC(=O)O)NC(=O)[C@@H](NC(=O)CNC(=O)[C@H](CC(C)C)NC(=O)[C@@H]1CCCN1C(=O)[C@H](CCCCN)NC(=O)[C@H](CCSC)NC(=O)[C@H](CC(C)C)NC(=O)[C@H](CC(C)C)NC(=O)[C@H](CC(C)C)NC(=O)[C@H](CC(N)=O)NC(=O)[C@H](Cc1ccccc1)NC(=O)[C@H](CCSC)NC(=O)[C@H](CC(=O)O)NC(=O)[C@H](Cc1ccc(O)cc1)NC(=O)[C@@H](N)CO)[C@@H](C)CC)C(=O)O` [Peptide 337] is 5-fold lower in IC50: 0.14 ± 0.02 µM for the first, 0.028 ± 0.006 µM for the second. The second is the more potent here.

Going from `CC[C@H](C)[C@H](NC(=O)[C@H](CO)NC(=O)[C@H](CC(N)=O)NC(=O)[C@H](Cc1ccccc1)NC(=O)[C@@H](NC(=O)[C@H](CC(C)C)NC(=O)[C@H](CCC(N)=O)NC(=O)[C@H](CC(=O)O)NC(=O)[C@H](CCC(=O)O)NC(=O)[C@@H](N)Cc1ccccc1)C(C)C)C(=O)N[C@@H](CO)C(=O)N[C@@H](C)C(=O)N[C@@H](CCCNC(=N)N)C(=O)N[C@@H](C)C(=O)N[C@@H](CC(C)C)C(=O)N[C@@H](CCCCN)C(=O)N[C@@H](C)C(=O)N[C@@H](Cc1ccc(O)cc1)C(=O)N[C@@H](Cc1ccccc1)C(=O)N[C@H](C(=O)N[C@@H](C)C(=O)O)[C@@H](C)O` [Peptide 345] to TTKHPDYAILAARIAVSNLHK [Peptide 307], the IC50 rises from 0.008 ± 0.0003 µM to 0.028 ± 0.004 µM (3.5-fold).

In the case of `CC[C@H](C)[C@H](NC(=O)CNC(=O)[C@H](CCCCN)NC(=O)[C@@H](N)Cc1c[nH]c2ccccc12)C(=O)N[C@@H](Cc1ccc(O)cc1)C(=O)N[C@H](C(=O)N[C@@H](Cc1ccc(O)cc1)C(=O)N[C@@H](CCCNC(=N)N)C(=O)N[C@H](C(=O)N[C@H](C(=O)N[C@@H](CCCCN)C(=O)N[C@@H](CO)C(=O)N[C@@H](CO)C(=O)N[C@@H](Cc1ccccc1)C(=O)N1CCC[C@H]1C(=O)N[C@H](C(=O)N1CCC[C@H]1C(=O)N[C@H](C(=O)N[C@H](C(=O)N[C@@H](CCCCN)C(=O)N[C@@H](CO)C(=O)O)[C@@H](C)CC)[C@@H](C)O)C(C)C)[C@@H](C)CC)[C@@H](C)CC)[C@@H](C)O` [Peptide 335], the IC50 is reported as 0.038 ± 0.011 µM.

Same assay, conditions: HLA-DR1 competition assay, unpublished data; read-out: IC50

With `CSCC[C@H](NC(=O)[C@H](CC(=O)O)NC(=O)[C@@H](NC(=O)[C@H](CCCNC(=N)N)NC(=O)[C@H](CCSC)NC(=O)[C@H](Cc1ccccc1)NC(=O)[C@@H]1CCCN1C(=O)[C@@H](NC(=O)[C@H](CCC(N)=O)NC(=O)[C@H](CCCCN)NC(=O)CNC(=O)[C@@H]1CCCN1C(=O)[C@@H](N)CC(N)=O)C(C)C)[C@@H](C)O)C(=O)N[C@@H](CC(C)C)C(=O)O` [Peptide B7055] the IC50 was 0.011 µM.
